pIC50: −log10 of the molar value.
Biological target: T1, HCV polymerase (Hepatitis C virus genotype 1b, UniProt P26663)
T1 construct: a region encoding NS5B (591 amino acids; J Virol 1991 Mar, 65(3), 1105-13) was amplified by PCR; 6 His (N); made in house; host or cells: Escherichia coli
Assay: biochemical
Details: read-out: HCV polymerase inhibitory activity IC50

T1 sequence (P26663 2420-3010): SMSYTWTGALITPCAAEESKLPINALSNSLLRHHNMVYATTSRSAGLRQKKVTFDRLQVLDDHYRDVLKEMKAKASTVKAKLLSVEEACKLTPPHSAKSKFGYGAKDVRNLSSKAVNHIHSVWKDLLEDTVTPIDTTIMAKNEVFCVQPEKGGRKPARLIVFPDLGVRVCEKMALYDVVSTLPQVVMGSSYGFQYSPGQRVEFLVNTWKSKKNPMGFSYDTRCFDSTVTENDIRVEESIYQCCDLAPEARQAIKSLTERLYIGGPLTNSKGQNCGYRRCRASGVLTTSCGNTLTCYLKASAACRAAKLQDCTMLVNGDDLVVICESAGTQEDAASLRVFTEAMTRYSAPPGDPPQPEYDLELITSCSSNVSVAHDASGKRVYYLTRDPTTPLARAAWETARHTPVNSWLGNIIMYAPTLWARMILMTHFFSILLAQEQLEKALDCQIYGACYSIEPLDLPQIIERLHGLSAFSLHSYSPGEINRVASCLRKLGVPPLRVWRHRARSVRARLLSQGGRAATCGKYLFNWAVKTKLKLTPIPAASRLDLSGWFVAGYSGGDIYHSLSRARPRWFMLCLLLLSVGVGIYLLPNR

SMILES	pIC50
CSc1ccc(-c2ccc(Cl)cc2COc2ccc(-c3nc4cc(C(=O)O)ccc4n3C3CCCCC3)cc2)cc1 [Example 166, 2-{4-[3-chloro-6-(4-methylthiophenyl)benzyloxy]phenyl}-1-cyclohexylbenzimidazole-5-carboxylic acid]	7.26
CS(=O)(=O)c1ccc(-c2ccc(Cl)cc2COc2ccc(-c3nc4cc(C(=O)O)ccc4n3C3CCCCC3)cc2)cc1 [Example 167, 2-{4-[3-chloro-6-(4-methanesulfonylphenyl)benzyloxy]phenyl}-1-cyclohexylbenzimidazole-5-carboxylic acid]	7.48
O=C(O)c1ccc2c(c1)nc(-c1ccc(OCc3cc(Cl)ccc3-c3cccs3)cc1)n2C1CCCCC1 [Example 168, 2-{4-[3-chloro-6-(2-thienyl)benzyloxy]phenyl}-1-cyclohexylbenzimidazole-5-carboxylic acid]	7.11
O=C(O)c1ccc2c(c1)nc(-c1ccc(OCc3cc(Cl)ccc3-c3cccc(Cl)c3)cc1)n2C1CCCCC1 [Example 169, 2-{4-[3-chloro-6-(3-chlorophenyl)benzyloxy]phenyl}-1-cyclohexylbenzimidazole-5-carboxylic acid]	6.82
O=C(O)c1ccc2c(c1)nc(-c1ccc(OCc3cc(Cl)ccc3-c3cccnc3)cc1)n2C1CCCCC1 [Example 170, 2-{4-[3-chloro-6-(3-pyridyl)benzyloxy]phenyl}-1-cyclohexylbenzimidazole-5-carboxylic acid]	7.32
O=C(O)c1ccc2c(c1)nc(-c1ccc(OCc3cc(Cl)ccc3-c3ccc(F)cc3)cc1)n2C1CCCCC1 [Example 171, 2-{4-[3-chloro-6-(4-fluorophenyl)benzyloxy]phenyl}-1-cyclohexylbenzimidazole-5-carboxylic acid]	7.30
O=C(O)c1ccc2c(c1)nc(-c1ccc(Oc3ccc(OCc4ccccc4)cc3)c(F)c1)n2C1CCCCC1 [Example 172, 2-[4-(4-benzyloxyphenoxy)-3-fluorophenyl]-1-cyclohexylbenzimidazole-5-carboxylic acid]	7.00
O=C(O)c1ccc2c(c1)nc(-c1ccc(OCc3cc(Cl)ccc3Br)cc1)n2C1CCCCC1 [Example 173, 2-[4-(2-bromo-5-chlorobenzyloxy)phenyl]-1-cyclohexylbenzimidazole-5-carboxylic acid]	6.85
O=C(O)c1ccc2c(c1)nc(-c1ccc(OCc3cc(Cl)ccc3-c3ccc(Cl)cc3)cc1F)n2C1CCCCC1 [Example 174, 2-{4-[3-chloro-6-(4-chlorophenyl)benzyloxy]-2-fluorophenyl}-1-cyclohexylbenzimidazole-5-carboxylic acid]	7.52
CC(=O)N1CCC(COc2ccccc2Oc2ccc(-c3nc4cc(C(=O)O)ccc4n3C3CCCCC3)cc2)CC1 [Example 175, 2-{4-[2-{(1-acetyl-4-piperidyl)methoxy}phenoxy]phenyl}-1-cyclohexylbenzimidazole-5-carboxylic acid]	6.54
CC(=O)N1CCC(COc2cccc(Oc3ccc(-c4nc5cc(C(=O)O)ccc5n4C4CCCCC4)cc3)c2)CC1 [Example 176, 2-{4-[3-{(1-acetyl-4-piperidyl)methoxy}phenoxy]phenyl}-1-cyclohexylbenzimidazole-5-carboxylic acid]	7.28
C#CCOc1cccc(Oc2ccc(-c3nc4cc(C(=O)O)ccc4n3C3CCCCC3)cc2)c1 [Example 177, 1-cyclohexyl-2-{4-[3-(2-propynyloxy)phenoxy]phenyl}benzimidazole-5-carboxylic acid]	7.11
O=C(O)c1ccc2c(c1)nc(-c1ccc(Oc3cccc(OCc4cccnc4)c3)cc1)n2C1CCCCC1 [Example 178, 1-cyclohexyl-2-{4-[3-(3-pyridylmethoxy)phenoxy]phenyl}-benzimidazole-5-carboxylic acid]	7.28
COc1cc(OCc2ccccc2)ccc1-c1nc2cc(C(=O)O)ccc2n1C1CCCCC1 [Example 179, 2-(4-benzyloxy-2-methoxyphenyl)-1-cyclohexylbenzimidazole-5-carboxylic acid]	6.20
COc1ccc(Br)c(COc2ccc(-c3nc4cc(C(=O)O)ccc4n3C3CCCCC3)cc2)c1 [Example 180, 2-[4-(2-bromo-5-methoxybenzyloxy)phenyl]-1-cyclohexylbenzimidazole-5-carboxylic acid]	6.96
O=C(O)c1ccc2c(c1)nc(-c1ccc(OC(C(=O)O)(c3ccccc3)c3ccccc3)cc1)n2C1CCCCC1 [Example 181, 2-[4-(carboxydiphenylmethoxy)phenyl]-1-cyclohexylbenzimidazole-5-carboxylic acid]	6.15
O=C(O)c1ccc2c(c1)nc(-c1ccc(OCc3cc([N+](=O)[O-])ccc3-c3ccc(Cl)cc3)cc1)n2C1CCCCC1 [Example 182, 2-{4-[2-(4-chlorophenyl)-5-nitrobenzyloxy]phenyl}-1-cyclohexylbenzimidazole-5-carboxylic acid]	7.68
O=C(O)c1ccc(-c2ccc(Cl)cc2COc2ccc(-c3nc4cc(C(=O)O)ccc4n3C3CCCCC3)cc2)cc1 [Example 184, 2-{4-[2-(4-carboxyphenyl)-5-chlorobenzyloxy]phenyl}-1-cyclohexylbenzimidazole-5-carboxylic acid]	7.74

SMILES	pIC50
O=C(O)c1ccc2c(c1)nc(-c1ccc(OC[C@@H]3CCCN3C(=O)OCc3ccccc3)cc1)n2C1CCCCC1 [Example 185, 2-{4-[{(2S)-1-benzyloxycarbonyl-2-pyrrolidinyl}methoxy]phenyl}-1-cyclohexylbenzimidazole-5-carboxylic acid]	6.96
O=C(O)c1ccc2c(c1)nc(-c1ccc(OCc3ccccc3-c3ccc(C(F)(F)F)cc3)cc1Cl)n2C1CCCCC1 [Example 186, 2-{2-chloro-4-[2-(4-trifluoromethylphenyl)benzyloxy]phenyl}-1-cyclohexylbenzimidazole-5-carboxylic acid]	6.43
O=C(O)c1ccc2c(c1)nc(-c1ccc(Oc3cccc(OCc4ccccn4)c3)cc1)n2C1CCCCC1 [Example 187, 1-cyclohexyl-2-{4-[3-(2-pyridylmethoxy)phenoxy]phenyl}-benzimidazole-5-carboxylic acid]	7.25
O=C(O)c1ccc2c(c1)nc(-c1ccc(OCc3cc(F)ccc3-c3ccc(Cl)cc3)cc1)n2C1CCCCC1 [Example 188, 2-{4-[2-(4-chlorophenyl)-5-fluorobenzyloxy]phenyl}-1-cyclohexylbenzimidazole-5-carboxylic acid]	7.42
O=C(O)c1ccc(-c2ccc(Cl)cc2)c(COc2ccc(-c3nc4cc(C(=O)O)ccc4n3C3CCCCC3)cc2)c1 [Example 189, 2-{4-[3-carboxy-6-(4-chlorophenyl)benzyloxy]phenyl}-1-cyclohexylbenzimidazole-5-carboxylic acid]	7.77
CN(C)C(=O)COc1ccccc1Oc1ccc(-c2nc3cc(C(=O)O)ccc3n2C2CCCCC2)cc1 [Example 191, 1-cyclohexyl-2-{4-[2-(dimethylcarbamoylmethoxy)phenoxy]-phenyl}benzimidazole-5-carboxylic acid]	6.37
O=C(O)c1ccc2c(c1)nc(-c1ccc(Oc3ccccc3OCC(=O)N3CCCCC3)cc1)n2C1CCCCC1 [Example 192, 1-cyclohexyl-2-{4-[2-(piperidinocarbonylmethoxy)phenoxy]-phenyl}benzimidazole-5-carboxylic acid]	6.66
O=C(O)c1ccc2c(c1)nc(-c1ccc(OC[C@@H]3CCCN3S(=O)(=O)c3ccccc3)cc1)n2C1CCCCC1 [Example 193, 2-{4-[{(2S)-1-benzenesulfonyl-2-pyrrolidinyl}methoxy]phenyl}-1-cyclohexylbenzimidazole-5-carboxylic acid]	6.89
O=C(O)c1ccc2c(c1)nc(-c1ccc(OC[C@@H]3CCCN3C(=O)c3ccccc3)cc1)n2C1CCCCC1 [Example 194, 2-{4-[{(2S)-1-benzoyl-2-pyrrolidinyl}methoxy]phenyl}-1-cyclohexylbenzimidazole-5-carboxylic acid]	6.28
NC(=O)c1ccc(-c2ccc(Cl)cc2COc2ccc(-c3nc4cc(C(=O)O)ccc4n3C3CCCCC3)cc2)cc1 [Example 195, 2-{4-[2-(4-carbamoylphenyl)-5-chlorobenzyloxy]phenyl}-1-cyclohexylbenzimidazole-5-carboxylic acid]	7.64
CN(C)C(=O)COc1cccc(Oc2ccc(-c3nc4cc(C(=O)O)ccc4n3C3CCCCC3)cc2)c1 [Example 196, 1-cyclohexyl-2-{4-[3-(dimethylcarbamoylmethoxy)phenoxy]phenyl}benzimidazole-5-carboxylic acid]	6.70
O=C(O)c1ccc2c(c1)nc(-c1ccc(Oc3cccc(OCC(=O)N4CCCCC4)c3)cc1)n2C1CCCCC1 [Example 197, 1-cyclohexyl-2-{4-[3-(piperidinocarbonylmethoxy)phenoxy]-phenyl}benzimidazole-5-carboxylic acid]	6.96
CS(=O)(=O)N1CCC(COc2cccc(Oc3ccc(-c4nc5cc(C(=O)O)ccc5n4C4CCCCC4)cc3)c2)CC1 [Example 198, 1-cyclohexyl-2-{4-[3-{(1-methanesulfonyl-4-piperidyl)methoxy}-phenoxy]phenyl}benzimidazole-5-carboxylic acid]	7.36
Cc1nc(COc2ccc(-c3nc4cc(C(=O)O)ccc4n3C3CCCCC3)cc2)c(-c2ccc(Cl)cc2)o1 [Example 199, 1-cyclohexyl-2-{4-[{2-methyl-5-(4-chlorophenyl)-4-oxazolyl}-methoxy]phenyl}benzimidazole-5-carboxylic acid]	6.96
O=C(O)c1ccc2c(c1)nc(-c1ccc(Oc3cccc(OCc4cccc(Cl)c4)c3)cc1)n2C1CCCCC1 [Example 200, 2-{4-[3-(3-chlorobenzyloxy)phenoxy]phenyl}-1-cyclohexylbenzimidazole-5-carboxylic acid]	7.00
O=C(O)c1ccc2c(c1)nc(-c1ccc(Oc3cccc(OCc4ccc(Cl)cc4)c3)cc1)n2C1CCCCC1 [Example 201, 2-{4-[3-(4-chlorobenzyloxy)phenoxy]phenyl}-1-cyclohexylbenzimidazole-5-carboxylic acid]	6.85
O=C(O)c1ccc2c(c1)nc(-c1ccc(Oc3cccc(OCc4ccc(F)cc4)c3)cc1)n2C1CCCCC1 [Example 202, 1-cyclohexyl-2-{4-[3-(4-fluorobenzyloxy)phenoxy]phenyl}-benzimidazole-5-carboxylic acid]	7.02

From patent US20040082635A1, “Fused cyclic compounds and medicinal use thereof” (priority 2001, published 2004)
